Data published in US6214805A, “RNase L activators and antisense oligonucleotides effective to treat RSV infections” (priority 1997, dated 2001).
“And” between values parts separate entries of the source, which are not always exact repeats. Equal entries are not always repeated.

Columns and labels:
RSV strain A2 [1] = experiment: Inhibition of RSV replication in RSV-infected 9HTE cells, virus plaque assay on CV-1 cells at 36 h post-infection; format: cell-based, Respiratory syncytial virus; conditions: 9HTE cells; for % Inhibition of RSV replication: M.O.I. 2.0, 36 hrs post-infection
From the text: To develop 2-5A antisense chimeras with the potential to block RSV replication, an oligonucleotide binding site in the viral RNA polymerase (RSV L) mRNA, which encodes a low abundance message that is absolutely required for RSV replication was selected. The first chimera synthesized and evaluated was pA4 -antiRSV/(8490-8509). The binding sites for the chimeric oligonucleotide's antisense domain are to the transcripts of nucleotides 8490-8509 in the RSV genome, which spans the translation start codon for the L protein, and to nucleotides 8490-8509 of the antigenomic strand (the template for reproduction of the genome). Since to function as an effective treatment, a candidate agent must be able to inhibit viral replication subsequent to diagnosis, the anti-RSV effect of the 2-5A antisense chimera was determined on human tracheal epithelial cells, 9HTE, with treatments beginning either 4 h before RSV infection (pre-/post-infection treatments) or 2 h following infection (post-infection treatments). In the post-infection treatments, pA4 -antiRSV/([…]), was added at t+2, t+14 and t+26, (numbers represent time in h relative to time of infection, 0) For pre-infection treatment, pA4 -antiRSV/(8490-8509) (10 μM final concentration), was added at t-4, and t0 in addition to […]; t+14 and t+26. Virus harvested from control and oligonucleotide-treated 9HTE cells was measured by infecting CV-1 cells and subsequently counting viral plaques. […] On the basis of these experiments, all subsequent experiments were performed with post-infectiontreatments only. Additionally, these experiments indicate the potential use of these compounds as a treatment for active infection as compared to a prophylactic measure.
The human tracheal epithelial cell line, 9HTE, (Gruenert et al., 1988) and CV-1 cells, (American Type Culture Collection, Rockville, Md., CCI#70) a green monkey kidney cell line which is highly permissive to RSV infection, were cultured in minimal essential medium (MEM) supplemented with 10% (v/v) fetal bovine serum (FBS), 2 mM L-glutamine, 1× MEM amino acids solution, 1× MEM non-essential amino acids solution, 100 U/ml penicillin, 100 μg/ml streptomycin and 0.25 μg/ml amphotericin B ("culture medium") (all reagents from Gibco BRL, Bethesda, Md.). RSV strain A2 (ATCC No. VR1302) was propagated in CV-1 cells. CV-1 monolayers were infected at a multiplicity of infection (M.O.I.) of 0.2 and cultured 46 h in MEM, 2% FBS, 1× Penicillin/Streptomycin (PS) in 5% CO2, 95% O2 at 37° C. Cells were then washed 2 times in MEM and subsequently covered in MEM, 2% FBS, 1× PS, 50 mM HEPES (pH7.5), 100 mM Mg(SO4). After 2 h at 37° C., cells were scraped and sonicated as previously described (Panuska et al., 1995). Aliquots (1 ml each) of cell sonicates were flash frozen in ethanol/dry ice within 20 min of scraping. Several aliquots were then thawed and titered by a plaque assay on CV-1 cells as previously described (Cirino et al., 1993). The range of virus yield from this procedure was 2 to 7×10^6 plaque forming units (pfu) per ml.
Infection of 9HTE cells was performed as previously described (Merolla et al., 1994). Briefly, confluent monolayers were exposed to RSV diluted in MEM, 2% FBS, for 2 h at 37° C. in 5% CO2, 95% O2. After exposure, cells were washed two times with serum-free MEM media and then fresh culture media (with 10% FBS) was added. Oligonucleotides were either added 4 h prior to infection (t-4) or immediately after infection (t+2) and also at t+14 and t+26. Cells were harvested for plaque assays at 36 h post-infection to determine viral titers as previously described (Cirino et al., 1993). Cells were washed twice to remove any residual antisense and were then scraped in MEM containing 2% FBS, 1× PS. 9HTE cells were sonicated for 20 sec on ice then the extracts were serially diluted and transferred to a confluent monolayer of CV-1 for quantitation of infectious viral particles. […]

RSV strain A2 [2] = experiment: CPE inhibition assay in HEp-2 cells; format: cell-based, Respiratory syncytial virus; conditions: Table 10, CPE, HEp2; for EC50: read-out: EC50
Description: The CPE inhibition assay used in this study was performed as described by Sidwell and Huffman (Sidwell et al., 1971, Appl. Microbiol. 22:7979-7801) with slight modifications. Varying concentrations of test compounds were added to each plate containing near confluent cell monolayers (1×10^5 cells/well) followed immediately by the addition of virus at a multiplicity of infection (MOI)=0.01, and then incubated at 37° C. […] All compounds were assayed for virus inhibition in quadruplicate and for cytotoxicity in duplicate. For each compound, two wells were set aside as uninfected, untreated cell controls per test and four wells per test received virus only and represented controls for virus replication. […] For all CPE-based assays, the 50% effective concentration (EC50) was calculated by regression analysis using the means of the CPE ratings at each concentration of compound.

Hep-2 Cells [3] = experiment: Cytotoxicity by morphological changes in HEp-2 cells (CPE inhibition assay); format: cell-based, human; conditions: Table 10, CPE, HEp2
Description: (§1) Embryonic African green monkey kidney cells (MA-104) were obtained from BioWhittaker, Inc. (Walkersville, Md.). HEp-2 cells were propagated from a human epidermoid carcinoma of the larynx (American Type Culture Collection, ATCC; Rockville, Md.). The cells were grown in minimal essential medium. (MEM, Gibco-BRL, Gaitherburg, Md.) supplemented with 0.1% NaHCO3 and 10% fetal bovine serum (FBS, Hyclone Laboratories, Logan Utah.). When performing antiviral assays, serum was reduced to 2% and 50 μg/ml gentamicin (Sigma Chemical Company, St. Louis, Mo.) was added to the medium.
Morphological changes due to compound cytotoxicity were graded on a scale of 0-5; grade 5 was defined as 100% cytotoxicity. The 50% cytotoxic dose (IC50 was calculated by regression analysis. A selective index (S.I.) was calculated for each compound [S.I.=(IC50)/(EC50 ].

RSV strain A2 [4] = experiment: Neutral red uptake assay of CPE inhibition in HEp-2 cells; format: cell-based, Respiratory syncytial virus; conditions: Table 11, neutral red, HEp2; for EC50: read-out: EC50
Description: (§2) This assay was performed by a modified method as described by Cavenaugh et al. (Cavenaugh et al. 1990, Invest. New Drugs 8:347-354). Briefly, medium was removed from each well of a plate scored for CPE from a CPE inhibition assay, 0.2 ml of neutral red (0.034% in PSS) was added to each of the wells of that plate and the plate incubated for 2 hr at 37° C. in the dark. The neutral red solution was removed from the wells and the wells rinsed twice with PBS (pH 7.4). Equal volumes (0.1 ml) of absolute ethanol and Sorenson citrate buffer (0.1 M sodium citrate, 0.1 M HCI, pH 4.2) were mixed together and added to each well. Plates were incubated in the dark for 30 min. at room temperature to solubilize the dye. The plates were then gently mixed on a 96-well plate adapted vortexer for 1 min. Absorbances at 540 nm and 450 nm were read with a microplate reader (Bio-Tek EL 1309; Bio-Tek Instruments, Inc. Winooski, Vt.). Absorbance values were expressed as percents of untreated controls and EC50 and IC50 values were calculated by regression analysis.

Hep-2 Cells [5] = experiment: Neutral red uptake assay of cytotoxicity in HEp-2 cells; format: cell-based, human; conditions: Table 11, neutral red, HEp2
Description: as §1, §2

[6] = 6.6 μM oligonucleotide/treatment at t+2, t+14, t+26 h
[7] = 9.9 μM oligonucleotide/treatment at t+2, t+14, t+26 h
[8] = 3.3 μM oligonucleotide/treatment at t+2, t+14, t+26 h
[9] = q.d. 1 day (added along with virus, never replenished)

For “A2'p(A2'p)3 -[(Bu)p]2 -(5'aat ggg atc cat ttt gtc c3'-3'c5') [A4-antiRSV3'-3'C/(8490-8509)]”, the “% Inhibition of RSV replication” value (RSV strain A2 [1]; [6]) was 20% and the “% Inhibition of RSV replication” value (RSV strain A2 [1]; [7]) was 28.3%.

With “pA2'p(A2'p)3 -[(Bu)p]2 -(3'ccc tgt ttt acc tag ggt aa5') [pA4-3'antiRSV5'/(8490-8509)]” the “% Inhibition of RSV replication” value (RSV strain A2 [1]; [7]) was 69%.

For “pA2'p(A2'p)3 -[(Bu)p]2 -(5'aat ggg atc cat ttt gtc c3'-3'c5') [pA4-antiRSV3'-3'C/(8490-8509)]”, the “% Inhibition of RSV replication” value (RSV strain A2 [1]; [8]) was 2%, the “% Inhibition of RSV replication” value (RSV strain A2 [1]; [6]) was 64.3% and 38.8% and the “% Inhibition of RSV replication” value (RSV strain A2 [1]; [7]) was 64.8% and 74%.

With “pA2'p(A2'p)3 -[(Bu)p]2 -(5'aat ggg atc cat ttt gtc cc3') [pA4-antiRSV/(8490-8509)]” the “% Inhibition of RSV replication” value (RSV strain A2 [1]; [8]) was 3%, the “% Inhibition of RSV replication” value (RSV strain A2 [1]; [6]) was 38.8% and the “% Inhibition of RSV replication” value (RSV strain A2 [1]; [7]) was 64.8%. For the same substance, the “inhibition of RSV replication” value (RSV strain A2 [1]; post-infection treatment, 10 μM at t+2, t+14, t+26) was “about 70%” and the “inhibition of RSV replication” value (RSV strain A2 [1]; pre-/post-infection treatment, 10 μM at t-4, t0 and after infection) was “about 70%”.

Work on “sp(5'A2')4 BupBupd(GsAsTsAGAAATAGAAAsGsCsA) (antisense GATAGAAATAGAAAGCA; chemistry not fully specified) [MP426, 2-5A-antisense control with scrambled antisense domain of MP351]” yielded an SI (RSV strain A2 [2]; B.I.D. 2 days) greater than 32, an SI (RSV strain A2 [2]; B.I.D. 3 days) of 16 and an EC50 (RSV strain A2 [2]; B.I.D. 3 days) of 0.2 µM. For the same substance, the SI (RSV strain A2 [2]; B.I.D. 4 days) was 3.2, the EC50 (RSV strain A2 [2]; [9]) was greater than 3.2 µM and the SI (RSV strain A2 [2]; q.d. 3 days) was greater than 1. The EC50 (RSV strain A2 [2]; q.d. 3 days) was 3.2 µM, the SI (RSV strain A2 [2]; q.d. 4 days) was greater than 3.2 and the IC50 (Hep-2 Cells [3]; B.I.D. 2 days) was greater than 3.2 µM. For the same substance, the IC50 (Hep-2 Cells [3]; B.I.D. 3 days) was 3.2 µM, the IC50 (Hep-2 Cells [3]; B.I.D. 4 days) was 3.2 µM and the IC50 (Hep-2 Cells [3]; [9]) was greater than 3.2 µM. The IC50 (Hep-2 Cells [3]; q.d. 3 days) was greater than 3.2 µM, the IC50 (Hep-2 Cells [3]; q.d. 4 days) was greater than 3.2 µM and the SI (RSV strain A2 [4]; B.I.D. 2 days) was greater than 11. It also gave an EC50 (RSV strain A2 [4]; B.I.D. 2 days) of 0.3 µM, an SI (RSV strain A2 [4]; B.I.D. 3 days) of 3.2 and an EC50 (RSV strain A2 [4]; B.I.D. 4 days) greater than 3.2 µM. For the same substance, the EC50 (RSV strain A2 [4]; [9]) was greater than 3.2 µM, the EC50 (RSV strain A2 [4]; q.d. 3 days) was greater than 3.2 µM and the EC50 (RSV strain A2 [4]; q.d. 4 days) was greater than 3.2 µM. It also gave an IC50 (Hep-2 Cells [5]; B.I.D. 2 days) greater than 3.2 µM, an IC50 (Hep-2 Cells [5]; B.I.D. 3 days) of 3.2 µM and an IC50 (Hep-2 Cells [5]; B.I.D. 4 days) of 3.2 µM. It also gave an IC50 (Hep-2 Cells [5]; [9]) greater than 3.2 µM, an IC50 (Hep-2 Cells [5]; q.d. 3 days) of 3.2 µM and an IC50 (Hep-2 Cells [5]; q.d. 4 days) of 3.2 µM.

“spA2'p(A2'p)3 -[(Bu)p]2 -(5'aat ggg atc cat ttt gtc cc3') [spA4-antiRSV/(8490-8509)]” was tested, and the “% Inhibition of RSV replication” value (RSV strain A2 [1]; [8]) was 16.5%, the “% Inhibition of RSV replication” value (RSV strain A2 [1]; [6]) was 71% and the “% Inhibition of RSV replication” value (RSV strain A2 [1]; [7]) was 94%.

“spA2'p(A2'p)3 -[(Bu)p]2 -(5'ata gtg tgt tct ttt gat t3'-3'a5') [spA4-antiRSV3'-'3A/(8251-8270)]” was tested, and the “% Inhibition of RSV replication” value (RSV strain A2 [1]; [8]) was 86.7% and the “% Inhibition of RSV replication” value (RSV strain A2 [1]; [6]) was 92%.

With “spA2'p(A2'p)3 -[(Bu)p]2 -(5'ctc tga gaa aga gat aa3'-3'c5') [spA4-antiRSV3'-3'C/(8561-8578)]” the “% Inhibition of RSV replication” value (RSV strain A2 [1]; [8]) was 57%.

In the case of “spA2'p(A2'p)3 -[(Bu)p]2 -(5'gat aag gac cat tga ata t3'-3'g5') [spA4-antiRSV3'-3'G/(8599-8618)]”, the “% Inhibition of RSV replication” value (RSV strain A2 [1]; [8]) is reported as 43% and 44%.

“spA2'p(A2'p)3 -[(Bu)p]2 -(5'gat tga aat ata gtg tgt3'-3't5') [spA4-antiRSV3'-3'T/(8261-8279)]” was tested, and the “% Inhibition of RSV replication” value (RSV strain A2 [1]; [8]) was 78%, the “% Inhibition of RSV replication” value (RSV strain A2 [1]; [6]) was 87% and the “% Inhibition of RSV replication” value (RSV strain A2 [1]; [7]) was 87%.
